Assay results published in patent US7795306B2, “Triterpene derivatives for the treatment of cancer and inflammatory disease by inhibition of NF-κB” (priority 2006, dated 2010).
Entries after “also recorded” stand apart in the source; their conditions may differ. Square brackets hold non-standard residues; d marks the D form. Peptide text beside a SMILES is read from it.

What was measured:
C33A = assay: cell proliferation by MTS assay for 72 h, C33A; format: cell-based, human
Source text: (§1) PM 2011 (1) inhibits tumor cell lines independent of endothelin receptor A (ETA) inhibition: Others have disclosed PM 2011 (1) and its derivatives as potent endothelin receptor antagonists (WO 92/12991, EP 526,642, U.S. Pat. No. 5,248,807, U.S. Pat. No. 5,463,107 and U.S. Pat. No. 5,587,505). We have used human tumor cell lines to evaluate the effects of PM 2011 (1) on endothelin-1 (ET-1) dependent biologic functions. Some of these cell lines are well characterized for the expression and role of ET-1, ETA and ETB (16, 41). […] To validate three cell lines, we studied the effects of BQ123, BQ788, PM2010, PM2011 and PM2012 on cell proliferation by MTS assay for 72 h (16).

HL60 = assay: cell proliferation by MTS assay for 72 h, HL60; format: cell-based, human
Source text: as §1

K562 = assay: cell proliferation by MTS assay for 72 h, K562; format: cell-based, human; settings: K562 tumor cell line
Source text: as §1

SiHa = assay: cell proliferation by MTS assay for 72 h, SiHa; format: cell-based, human; settings: SiHa tumor cell line
Source text: as §1

SK-Mel-28 = assay: cell proliferation by MTS assay for 72 h, SK-Mel-28; format: cell-based, human; settings: for growth inhibition of SK-Mel 28 cell line (in words): SK-Mel 28, MTS assay
Source text: as §1

NF-κB = assay: TNF-α-dependent activation of NF-κB binding to κB site in nuclear extracts of HeLa cells, ELISA (Panomics); format: cell-based; settings: HeLa cell nuclear extracts, FIG. 1
Source text: To further explore the additional molecular target(s) for PM2011, we postulated that these compounds could antagonize the activation of NF-κB. To test this hypothesis, we evaluated the effects of PM2010, PM2011 and PM2012 on TNF-α-dependent activation of NF-κB binding to κB site in nuclear extracts of HeLa cells by an ELISA (Panomics) as recommended.

[1] = Homo sapiens, 100 μM, read-out: % Inhibition at 100 μM (i)

| IC50 (HL60; Homo sapiens, HL-60, HL60 tumor cell line) | IC50 (SK-Mel-28; Homo sapiens, SK-Mel-28 tumor cell line, MTS assay) | IC50 (K562) | IC50 (SK-Mel-28; SK-Mel-28 tumor cell line, MTS assay) | Compound | IC50 (C33A; Homo sapiens, C-33-A, C33A tumor cell line, MTS assay, 72 h) | inhibition at 100 µM (K562; [1]) | inhibition at 100 µM (SiHa; [1]) | growth inhibition of SK-Mel 28 cell line (in words) (SK-Mel-28) | IC50 (C33A; C33A tumor cell line, MTS assay, 72 h) | inhibition of C33A (in words) (C33A; HPV-negative cell line C33A, neither secretes ET-1 nor expresses ETA) | IC50 (HL60; HL60 tumor cell line) | IC50 (SiHa) | NF-κB binding to κB site / inhibition of NF-κB activation (in words) (NF-κB) | % Inhibition at 100 μM (i) (C33A; C33A tumor cell line, 100 μM, MTS assay, 72 h) | % Inhibition at 100 μM (i) (K562; 100 μM) | % Inhibition at 100 μM (i) (SiHa; 100 μM) | % Inhibition at 100 μM (i) (SK-Mel-28; SK-Mel-28 tumor cell line, 100 μM, MTS assay) |
| --- | --- | --- | --- | --- | --- | --- | --- | --- | --- | --- | --- | --- | --- | --- | --- | --- | --- |
| 45000 nM | 82000 nM | – | – | CCCC[C@@H](NC(=O)[C@@H](Cc1cn(C(=O)OC)c2ccccc12)NC(=O)[C@H](CC(C)(C)C)NC(=O)N1[C@H](C)CCC[C@@H]1C)C(=O)O [BQ788] | 61800 nM | 0% | 45% | inhibited the growth | – | – | – | – | – | – | – | – | – |
| – | – | 1000 nM | 900 nM | Myriceric acid A [PM2011] | – | – | – | – | 1300 nM | inhibition | 2300 nM | 3000 nM | dose-dependent inhibition; also recorded: dose-dependent decrease | – | – | – | – |
| – | – | – | – | CC(C)C[C@@H]1NC(=O)[C@@H](C(C)C)NC(=O)[C@@H]2CCCN2C(=O)[C@@H](CC(=O)O)NC(=O)[C@@H](Cc2c[nH]c3ccccc23)NC1=O [BQ-123] (cyclo(L[dW][dD]P[dV])) | – | – | – | no growth inhibition | – | – | 46000 nM | – | – | 20% i | 30% | 0% i | 0% i |
